Source: the supplement of paper PMC12592484

Tests used:
Experiment in all cases: drug sensitivity score (DSS2, normalised partial AUC of dose-response, 72 h CellTiter-Glo viability) (DSS (dimensionless)); higher = more sensitive (stronger growth inhibition / cytotoxicity); extreme values may be limits of the assay
CAF#2 = system: CAF#2 (primary prostate cancer-associated fibroblasts of iCAF-like type)
How it was run: (§1)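 Cells were added to 384-well plates already holding compounds at five doses over a 10,000-fold range: low-passage primary prostate cancer-associated fibroblasts, PF179T, WPMY-1, LNCaP and 22Rv1. Viability was measured 72 h later by CellTiter-Glo 2.0 luminescence and scaled to vehicle and positive-control wells. The drug sensitivity score, computed in BREEZE, is a partial area under the fitted logistic dose–response curve divided by the log of its upper asymptote, with higher scores meaning greater sensitivity.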

CAF#1 = system: CAF#1 (primary prostate cancer-associated fibroblasts of myCAF-like type)
How it was run: as §1

CAF#6 = system: CAF#6 (primary prostate cancer-associated fibroblasts of iCAF-like type)
How it was run: as §1

PF179T = system: PF179T
How it was run: as §1

CAF#7 = system: CAF#7 (primary prostate cancer-associated fibroblasts of myCAF-like type)
How it was run: as §1

LNCAP = system: LNCAP
How it was run: as §1

WPMY-1 = system: WPMY-1
How it was run: as §1

CAF#4 = system: CAF#4 (primary prostate cancer-associated fibroblasts of iCAF-like type)
How it was run: as §1

22Rv1 = system: 22Rv1
How it was run: as §1

CAF#3 = system: CAF#3 (primary prostate cancer-associated fibroblasts of myCAF-like type)
How it was run: as §1

CAF#5 = system: CAF#5 (primary prostate cancer-associated fibroblasts of myCAF-like type)
How it was run: as §1

Row | SMILES | drug sensitivity score (CAF#2) | drug sensitivity score (CAF#1) | drug sensitivity score (CAF#6) | drug sensitivity score (PF179T) | drug sensitivity score (CAF#7) | drug sensitivity score (LNCAP) | drug sensitivity score (WPMY-1) | drug sensitivity score (CAF#4) | drug sensitivity score (22Rv1) | drug sensitivity score (CAF#3) | drug sensitivity score (CAF#5)
1 | Cc1nc(C(=O)NCC(=O)O)c(O)c2ccc(Oc3ccccc3)cc12 [Roxadustat] (tested concentration range 1-10000 nM) | 0 | 0 | 0 | 0 | 0 | 0 | 0 | 0 | 0 | 0 | 0.2
2 | CN(C)C[C@@H]1CCn2cc(c3ccccc32)C2=C(C(=O)NC2=O)c2cn(c3ccccc23)CCO1 [Ruboxistaurin] (tested concentration range 1-10000 nM) | 6.6 | 8.4 | 6.8 | 8.4 | 5.9 | 8.2 | 8.4 | 8.4 | 9.6 | 8.9 | 6.8
3 | CNCc1ccc(-c2[nH]c3cc(F)cc4c3c2CCNC4=O)cc1 [Rucaparib] (tested concentration range 1-10000 nM) | 2.3 | 0.8 | 0.5 | 3.7 | 2.9 | 4.8 | 1.8 | 3.8 | 4.6 | 0 | 0
4 | N#CC[C@H](C1CCCC1)n1cc(-c2ncnc3[nH]ccc23)cn1 [Ruxolitinib] (tested concentration range 1-10000 nM) | 0.8 | 0 | 0 | 0 | 0 | 1.5 | 0.6 | 0 | 0 | 0 | 1.3
5 | CC(C)N(CCCNC(=O)Nc1ccc(C(C)(C)C)cc1)C[C@H]1O[C@@H](n2cc(Br)c3c(N)ncnc32)[C@H](O)[C@@H]1O [SGC0946] (tested concentration range 1-10000 nM) | 0 | 0.2 | 0.1 | 0 | 1.2 | 2.1 | 2.2 | 0.8 | 1.6 | 0.5 | 0
6 | COc1ccc(CCc2nc3cc(-c4c(C)noc4C)ccc3n2C[C@H](C)N2CCOCC2)cc1Cl [SGC-CBP30] (tested concentration range 2.5-25000 nM) | 1.5 | 1.6 | 2.2 | 0.1 | 1.2 | 8.5 | 7.4 | 1.3 | 6.2 | 5.4 | 0.8
7 | CN(CC(=O)N(Cc1ccc(C2CCCCC2)cc1)c1ccc(C(=O)O)cc1)S(=O)(=O)c1c(F)c(F)c(F)c(F)c1F [SH-4-54] (tested concentration range 2.5-25000 nM) | 6.3 | 6.3 | 7.2 | 5.5 | 4.6 | 6 | 6.5 | 5.6 | 8.4 | 5.4 | 6
8 | CCc1c2c(nc3ccc(O)cc13)-c1cc3c(c(=O)n1C2)COC(=O)[C@]3(O)CC [SN-38] (tested concentration range 1-10000 nM) | 25.5 | 20.3 | 8.7 | 19.7 | 11.8 | 34.8 | 35 | 20.3 | 39.3 | 7.1 | 14.3
9 | CC[C@@H](C(=O)[C@@H](C)[C@@H](O)[C@H](C)[C@@H]1O[C@@H]([C@@H](CC)C(=O)O)CC[C@@H]1C)[C@H]1O[C@]2(C=C[C@@H](O)[C@]3(CC[C@@](C)([C@H]4CC[C@](O)(CC)[C@H](C)O4)O3)O2)[C@H](C)C[C@@H]1C [Salinomycin] (tested concentration range 5-50000 nM) | 26.5 | 26.8 | 21.2 | 19.1 | 18.5 | 29.1 | 28.8 | 25.2 | 26.4 | 9.4 | 23.6
10 | CC(C)n1nc(-c2ccc3oc(N)nc3c2)c2c(N)ncnc21 [Sapanisertib] (tested concentration range 0.1-1000 nM) | 14 | 20.2 | 14.6 | 18 | 13.2 | 20 | 13.7 | 17.8 | 21.2 | 14.3 | 19.1
11 | CN1CCN(CCOc2cc(OC3CCOCC3)c3c(Nc4c(Cl)ccc5c4OCO5)ncnc3c2)CC1 [Saracatinib] (tested concentration range 1-10000 nM) | 7.7 | 7.7 | 6.6 | 5.5 | 5.8 | 6.4 | 5.4 | 6.7 | 4.3 | 10.1 | 8.2
12 | CC[C@H](CO)Nc1nc(NCc2ccccc2)c2ncn(C(C)C)c2n1 [Seliciclib] (tested concentration range 1-10000 nM) | 1.1 | 1.7 | 1.1 | 0 | 2.3 | 4.3 | 0.6 | 1.4 | 0.2 | 1.4 | 2
13 | O=C(/C=C\n1cnc(-c2cc(C(F)(F)F)cc(C(F)(F)F)c2)n1)NNc1cnccn1 [Selinexor] (tested concentration range 1-10000 nM) | 21.3 | 16.5 | 11.7 | 16.4 | 11.9 | 26.2 | 27.4 | 17.8 | 30.5 | 9.9 | 14.6
14 | Cc1cc(F)c(C(=O)Nc2cccc(-c3nncn3C(C)C)n2)cc1-n1cnc(C2CC2)c1 [Selonsertib] (tested concentration range 0.1-1000 nM) | 0 | 0 | 0 | 0 | 0 | 1.4 | 0 | 0 | 0 | 0 | 0
15 | Cn1cnc2c(F)c(Nc3ccc(Br)cc3Cl)c(C(=O)NOCCO)cc21 [Selumetinib] (tested concentration range 1-10000 nM) | 4.5 | 1.2 | 1.1 | 2.5 | 2.6 | 0 | 4.3 | 2.5 | 14.4 | 0 | 1.6
16 | Nc1nc2cc(-c3ccc4ncc(C(=O)N5CCOCC5)n4c3)ccc2o1 [Serabelisib] (tested concentration range 1-10000 nM) | 4.3 | 3.2 | 4.5 | 2.8 | 3.4 | 2.3 | 1.2 | 2.1 | 5.2 | 4.2 | 5.7
17 | O=C(O)c1ccc2c(c1)nc(Nc1cccc(Cl)c1)c1ccncc12 [Silmitasertib] (tested concentration range 1-10000 nM) | 4 | 5.4 | 0.6 | 2.5 | 1.5 | 3.9 | 5.1 | 2.2 | 6 | 0.7 | 4.6
18 | CO[C@H]1C[C@@H]2CC[C@@H](C)[C@@](O)(O2)C(=O)C(=O)N2CCCC[C@H]2C(=O)O[C@H]([C@H](C)C[C@@H]2CC[C@@H](O)[C@H](OC)C2)CC(=O)[C@H](C)/C=C(\C)[C@@H](O)[C@@H](OC)C(=O)[C@H](C)C[C@H](C)/C=C/C=C/C=C/1C [Sirolimus] (tested concentration range 0-100 nM) | 6.8 | 6.5 | 3.4 | 5.6 | 3.7 | 2.5 | 4 | 4.9 | 9.3 | 2.2 | 7.4
19 | COCCNCc1ccc(-c2cc3nccc(Oc4ccc(NC(=O)C5(C(=O)Nc6ccc(F)cc6)CC5)cc4F)c3s2)nc1 [Sitravatinib] (tested concentration range 0.2-2500 nM) | 9.7 | 5.5 | 3.4 | 6.7 | 5.7 | 2.1 | 5.9 | 6.6 | 4.7 | 4.5 | 6.6
20 | Cc1c(C(=O)Nc2ccc(N3C[C@@H](C)O[C@@H](C)C3)nc2)cccc1-c1ccc(OC(F)(F)F)cc1 [Sonidegib] (tested concentration range 1-10000 nM) | 1.7 | 0 | 0 | 0 | 0 | 4.9 | 0 | 3.2 | 2.2 | 0 | 1.5
21 | CNC(=O)c1cc(Oc2ccc(NC(=O)Nc3ccc(Cl)c(C(F)(F)F)c3)cc2)ccn1 [Sorafenib] (tested concentration range 0.1-1000 nM) | 0 | 0 | 0 | 0 | 0 | 0 | 0 | 1.2 | 0 | 2.6 | 0
22 | CN1CCN(c2nc(C3=C(c4c[nH]c5ccccc45)C(=O)NC3=O)c3ccccc3n2)CC1 [Sotrastaurin] (tested concentration range 1-10000 nM) | 2.2 | 0 | 0 | 0 | 0 | 3.5 | 1.5 | 0 | 3.6 | 0 | 0
23 | CC(C)n1cnc2c(NCCc3ccc(O)cc3)nc(-c3csc4ccccc34)nc21 [StemRegenin 1] (tested concentration range 1-10000 nM) | 1.7 | 1.5 | 0.6 | 0 | 0 | 5 | 2.1 | 2.6 | 2.5 | 3.5 | 1.7
24 | CCN(CC)CCNC(=O)c1c(C)[nH]c(/C=C2\C(=O)Nc3ccc(F)cc32)c1C [Sunitinib] (tested concentration range 0.1-1000 nM) | 2.5 | 0 | 0 | 0 | 0 | 0 | 0.5 | 0 | 0.8 | 2.8 | 0.3
